Reference: PMC3298089 (Journal of Medicinal Chemistry, 2012)

Legend:
AKR1C3 = biological target: T1, AKR1C3 (Homo sapiens, UniProt P42330); experiment: Inhibition of NADP+ dependent oxidation of S-tetralol catalyzed by AKR1C3; type: biochemical
T1 sequence (P42330 1-323): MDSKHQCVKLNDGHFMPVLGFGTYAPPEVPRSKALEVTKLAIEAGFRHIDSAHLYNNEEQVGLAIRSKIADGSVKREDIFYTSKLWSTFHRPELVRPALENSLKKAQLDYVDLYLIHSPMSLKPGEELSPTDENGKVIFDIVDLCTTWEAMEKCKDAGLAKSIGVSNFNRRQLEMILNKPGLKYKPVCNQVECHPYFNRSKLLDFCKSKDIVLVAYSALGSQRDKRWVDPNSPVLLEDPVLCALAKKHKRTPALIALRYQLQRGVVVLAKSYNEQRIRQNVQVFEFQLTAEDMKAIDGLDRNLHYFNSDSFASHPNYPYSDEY

AKR1C2 = biological target: T2, AKR1C2 (Homo sapiens, UniProt P52895); experiment: Inhibition of NADP+ dependent oxidation of S-tetralol catalyzed by AKR1C2; type: biochemical; conditions: selectivity for AKR1C3; high value = high selectivity
T2 sequence (P52895 1-323): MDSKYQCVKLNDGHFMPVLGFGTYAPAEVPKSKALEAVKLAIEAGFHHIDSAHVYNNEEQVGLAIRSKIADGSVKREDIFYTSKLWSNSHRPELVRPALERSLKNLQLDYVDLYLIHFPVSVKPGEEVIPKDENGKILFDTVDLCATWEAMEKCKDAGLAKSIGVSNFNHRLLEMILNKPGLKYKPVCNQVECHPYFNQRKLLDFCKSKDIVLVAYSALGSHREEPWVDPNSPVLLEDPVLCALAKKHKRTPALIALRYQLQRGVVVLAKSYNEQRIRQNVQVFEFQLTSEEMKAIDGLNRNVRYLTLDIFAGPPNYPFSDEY

[1] = system: AKR1C3 mediated production of testosterone in LNCaP-AKR1C3 cells; experiment: LNCaP-AKR1C3 mediated formation of testosterone from [14C]-Δ4-AD; type: cell-based, human; conditions: 10 μM inhibitor, 0.1 μM [14C]-Δ4-AD, 48 h, relative to control

Compound	IC50 (AKR1C3) [nM]	Ratio IC50 1C2:1C3 (AKR1C2)	further results
CC(C)(C)c1ccc(Nc2ccccc2C(=O)O)cc1 [Compound 1o]	38	–	–
O=C(O)c1cccc(Nc2cccc(C(=O)O)c2)c1 [Compound 4l]	–	>28.0	–
O=C(O)c1cccc(Nc2ccc([N+](=O)[O-])cc2)c1 [Compound 4m]	33	–	–
CC(=O)c1ccc(Nc2cccc(C(=O)O)c2)c(C(=O)O)c1 [Compound 4w]	–	–	inhibition of testosterone production in LNCaP-AKR1C3 cells [1]: Almost identical results
O=C(O)c1ccc(Nc2cccc([N+](=O)[O-])c2)cc1 [Compound 5d, 4-((3-nitrophenyl)amino)benzoic acid]	–	>24	–
O=C(O)c1ccc(Nc2ccc(Br)cc2)cc1 [Compound 5l]	–	>25	–
